# Legend:
# KB tumor xenografts = assay: Biodistribution studies in nude mice bearing KB tumor xenografts; assay type: in vivo, nude mice (CD-1 Foxn-1/nu)
# Source text: In vivo experiments were approved by the local veterinarian department and conducted in accordance to the Swiss law of animal protection. Six to eight-week-old female, athymic nude mice (CD-1 Foxn-1/nu) were purchased from Charles River Laboratories (Sulzfeld, Germany). The animals were fed with a folate-deficient rodent diet starting 5 days prior to the tumor cell inoculation. Mice were inoculated with KB cells (5×10^6 cells in […] PBS) into the subcutis of each shoulder. Animal experiments were performed approximately 14 days after tumor cell inoculation. Biodistribution studies were performed in triplicate. [^18F]-3′-aza-2′-fluorofolic acid was diluted in PBS pH 7.4 to the desired radioactivity concentration (˜5 MBq per mouse) for immediate administration via a lateral tail vein.
# […] Selected tissues and organs were collected, weighed, and counted for radioactivity in a −counter. The results were listed as percentage of the injected dose per gram of tissue weight [% ID/g], using reference counts from a definite sample of the original injectate that was counted at the same time.
# The obtained are summarized in Table 2 and represent the percentage injected dose per gram tissue [% ID/g] averaged from three or four animals (Table 2).
# [1] = Ex vivo metabolite studies in KB tumor bearing mice; conditions: i.v., radio-UPLC
# Protocol: Radio-UPLC: For stability studies, an ultra-performance liquid chromatography (UPLC™, Waters) system, equipped with an Acquity UPLC BEH C18 column (1.7 μm, 2.1×50 mm, Waters) and a coincidence detector (FlowStar LB513, Berthold) was used with following solvent system: eluent A was a NaH2PO4/Na2HPO4 buffer (0.05 M, pH 7.4) and eluent B was acetonitrile. A gradient from 0-4.0 min 100%-40% A, at a flow rate of 0.6 ml/min was used.
# For the determination of radiometabolites in vivo, 3′-aza-2′-[^18F]fluorofolic acid (60-70 MBq) was intravenously injected into KB tumor bearing mice (n=2). After 5 min, blood samples were drawn from the opposite vein and the animals were sacrificed 30 min after radiotracer injection. The whole blood, liver, tumor and urine were collected. Blood samples were centrifuged at 5000 g for 5 min at 4° C. The proteins of the plasma samples were precipitated by addition of the same volume of ice-cold methanol followed by centrifugation. The supernatants of the plasma and the urine sample were diluted with PBS buffer and analyzed by radio-UPLC. Liver and tumor tissue were homogenized in an equal volume of PBS using a PT 1200 C Polytron (Kinematica AG), respectively. After addition of the same volume of ice-cold MeOH, the mixture was centrifuged at 5000 g for 5 min and 4° C. The supernatant was cleared from remaining proteins by addition of ice-cold methanol, followed by centrifugation. The resulting supernatant fractions were diluted with PBS buffer and analyzed by radio-UPLC.
# [2] = 60 min p.i. blockade (100 μg folic acid 10 min before radiotracer)
smiles,measurement,setting,value
Nc1nc2ncc(CNc3ccc(C(=O)N[C@@H](CCC(=O)O)C(=O)O)c([18F])n3)nc2c(=O)[nH]1 [3′-aza-2′-[^18F]fluorofolic acid],% ID/g in Blood,"KB tumor xenografts; 30 min p.i., i.v.",1.2 ± 0.3 % ID/g
same,% ID/g in Bone,"KB tumor xenografts; 30 min p.i., i.v.",2.1 ± 0.3 % ID/g
same,% ID/g in Feces,"KB tumor xenografts; 30 min p.i., i.v.",1.2 ± 0.2 % ID/g
same,% ID/g in Gallbladder,"KB tumor xenografts; 30 min p.i., i.v.",8.1 ± 2.9 % ID/g
same,% ID/g in Heart,"KB tumor xenografts; 30 min p.i., i.v.",2.1 ± 0.2 % ID/g
same,% ID/g in Intestine,"KB tumor xenografts; 30 min p.i., i.v.",1.4 ± 0.1 % ID/g
same,% ID/g in Kidneys,"KB tumor xenografts; 30 min p.i., i.v.",54.8 ± 6.1 % ID/g
same,% ID/g in Liver,"KB tumor xenografts; 30 min p.i., i.v.",13.7 ± 2.9 % ID/g
same,% ID/g in Lungs,"KB tumor xenografts; 30 min p.i., i.v.",2.0 ± 0.3 % ID/g
same,% ID/g in Muscle,"KB tumor xenografts; 30 min p.i., i.v.",1.7 ± 0.4 % ID/g
same,% ID/g in Salivary glands,"KB tumor xenografts; 30 min p.i., i.v.",9.0 ± 1.3 % ID/g
same,% ID/g in Spleen,"KB tumor xenografts; 30 min p.i., i.v.",1.3 ± 0.2 % ID/g
same,% ID/g in Stomach,"KB tumor xenografts; 30 min p.i., i.v.",2.8 ± 0.5 % ID/g
same,% ID/g in Tumor,"KB tumor xenografts; 30 min p.i., i.v.",11.7 ± 0.9 % ID/g
same,Ratio Tumor/Blood,"KB tumor xenografts; 30 min p.i., i.v.",11.1 ± 4.1
same,Ratio Tumor/Kidneys,"KB tumor xenografts; 30 min p.i., i.v.",0.2 ± 0.1
same,Ratio Tumor/Liver,"KB tumor xenografts; 30 min p.i., i.v.",0.9 ± 0.2
same,% ID/g in Blood,KB tumor xenografts; [2],0.8 ± 0.3 % ID/g
same,% ID/g in Bone,KB tumor xenografts; [2],0.6 ± 0.3 % ID/g
same,% ID/g in Feces,KB tumor xenografts; [2],6.0 ± 1.1 % ID/g
same,% ID/g in Gallbladder,KB tumor xenografts; [2],15.8 ± 9.3 % ID/g
same,% ID/g in Heart,KB tumor xenografts; [2],0.4 ± 0.2 % ID/g
same,% ID/g in Intestine,KB tumor xenografts; [2],1.3 ± 0.6 % ID/g
same,% ID/g in Kidneys,KB tumor xenografts; [2],5.9 ± 4.5 % ID/g
same,% ID/g in Liver,KB tumor xenografts; [2],10.9 ± 3.4 % ID/g
same,% ID/g in Lungs,KB tumor xenografts; [2],0.7 ± 0.3 % ID/g
same,% ID/g in Muscle,KB tumor xenografts; [2],0.3 ± 0.1 % ID/g
same,% ID/g in Salivary glands,KB tumor xenografts; [2],0.6 ± 0.2 % ID/g
same,% ID/g in Spleen,KB tumor xenografts; [2],0.4 ± 0.2 % ID/g
same,% ID/g in Stomach,KB tumor xenografts; [2],0.6 ± 0.3 % ID/g
same,% ID/g in Tumor,KB tumor xenografts; [2],1.7 ± 0.4 % ID/g
same,Ratio Tumor/Blood,KB tumor xenografts; [2],2.2 ± 0.3
same,Ratio Tumor/Kidneys,KB tumor xenografts; [2],0.4 ± 0.2
same,Ratio Tumor/Liver,KB tumor xenografts; [2],0.2 ± 0.1
same,% ID/g in Blood,"KB tumor xenografts; 60 min p.i., i.v.",0.6 ± 0.1 % ID/g
same,% ID/g in Bone,"KB tumor xenografts; 60 min p.i., i.v.",1.6 ± 0.3 % ID/g
same,% ID/g in Feces,"KB tumor xenografts; 60 min p.i., i.v.",3.0 ± 2.0 % ID/g
same,% ID/g in Gallbladder,"KB tumor xenografts; 60 min p.i., i.v.",8.4 ± 1.8 % ID/g
same,% ID/g in Heart,"KB tumor xenografts; 60 min p.i., i.v.",1.9 ± 0.3 % ID/g
same,% ID/g in Intestine,"KB tumor xenografts; 60 min p.i., i.v.",1.9 ± 0.2 % ID/g
same,% ID/g in Kidneys,"KB tumor xenografts; 60 min p.i., i.v.",53.6 ± 3.2 % ID/g
same,% ID/g in Liver,"KB tumor xenografts; 60 min p.i., i.v.",10.6 ± 0.9 % ID/g
same,% ID/g in Lungs,"KB tumor xenografts; 60 min p.i., i.v.",1.5 ± 0.2 % ID/g
same,% ID/g in Muscle,"KB tumor xenografts; 60 min p.i., i.v.",1.2 ± 0.2 % ID/g
same,% ID/g in Salivary glands,"KB tumor xenografts; 60 min p.i., i.v.",15.0 ± 6.1 % ID/g
same,% ID/g in Spleen,"KB tumor xenografts; 60 min p.i., i.v.",1.9 ± 0.1 % ID/g
same,% ID/g in Stomach,"KB tumor xenografts; 60 min p.i., i.v.",2.8 ± 0.9 % ID/g
same,% ID/g in Tumor,"KB tumor xenografts; 60 min p.i., i.v.",11.9 ± 1.7 % ID/g
same,Ratio Tumor/Blood,"KB tumor xenografts; 60 min p.i., i.v.",21.6 ± 2.3
same,Ratio Tumor/Kidneys,"KB tumor xenografts; 60 min p.i., i.v.",0.2 ± 0.1
same,Ratio Tumor/Liver,"KB tumor xenografts; 60 min p.i., i.v.",1.1 ± 0.2
same,% ID/g in Blood,"KB tumor xenografts; 90 min p.i., i.v.",0.6 ± 0.1 % ID/g
same,% ID/g in Bone,"KB tumor xenografts; 90 min p.i., i.v.",1.6 ± 0.3 % ID/g
same,% ID/g in Feces,"KB tumor xenografts; 90 min p.i., i.v.",1.8 ± 0.3 % ID/g
same,% ID/g in Gallbladder,"KB tumor xenografts; 90 min p.i., i.v.",9.3 ± 0.6 % ID/g
same,% ID/g in Heart,"KB tumor xenografts; 90 min p.i., i.v.",1.8 ± 0.1 % ID/g
same,% ID/g in Intestine,"KB tumor xenografts; 90 min p.i., i.v.",2.3 ± 0.4 % ID/g
same,% ID/g in Kidneys,"KB tumor xenografts; 90 min p.i., i.v.",57.3 ± 8.4 % ID/g
same,% ID/g in Liver,"KB tumor xenografts; 90 min p.i., i.v.",10.3 ± 2.4 % ID/g
same,% ID/g in Lungs,"KB tumor xenografts; 90 min p.i., i.v.",1.6 ± 0.3 % ID/g
same,% ID/g in Muscle,"KB tumor xenografts; 90 min p.i., i.v.",1.5 ± 0.4 % ID/g
same,% ID/g in Salivary glands,"KB tumor xenografts; 90 min p.i., i.v.",14.1 ± 0.9 % ID/g
same,% ID/g in Spleen,"KB tumor xenografts; 90 min p.i., i.v.",2.2 ± 0.2 % ID/g
same,% ID/g in Stomach,"KB tumor xenografts; 90 min p.i., i.v.",2.7 ± 0.1 % ID/g
same,% ID/g in Tumor,"KB tumor xenografts; 90 min p.i., i.v.",12.6 ± 1.8 % ID/g
same,Ratio Tumor/Blood,"KB tumor xenografts; 90 min p.i., i.v.",23.8 ± 4.1
same,Ratio Tumor/Kidneys,"KB tumor xenografts; 90 min p.i., i.v.",0.2 ± 0.1
same,Ratio Tumor/Liver,"KB tumor xenografts; 90 min p.i., i.v.",1.3 ± 0.4
same,Radiometabolites in liver,[1]; 30 min p.i.,signs of metabolism
same,Radiometabolites in tumor,[1]; 30 min p.i.,no detectable amounts of metabolites
same,Radiometabolites in urine,[1]; 30 min p.i.,no detectable amounts of metabolites
same,Radiometabolites in plasma,[1]; plasma sample 5 min p.i.,no detectable amounts of metabolites
same,Radiometabolites in plasma,[1]; plasma sample 30 min p.i.,no detectable amounts of metabolites

# Reference: patent publication US10357576B2, “18F-labelled folate/antifolate analogues” (MERCK & CIE, priority 2012, dated 2019)
